Reference: patent US6906205B2, “Spiro and dispiro 1,2,4-trioxolane antimalarials” (Medicines for Malaria Venture MMV, priority 2002, dated 2005)
Converted amounts (≈) assume the structure as drawn.

Key:
[1] = test system: P. falciparum NF54 strain (sensitive to standard antimalarials); test: semiautomated microdilution assay, [3H]-hypoxanthine incorporation, NF54 strain; type: cell-based, Plasmodium falciparum; details: NF54 strain, 72 h incubation
Outline: (§1)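 Logit regression analysis was used to estimate IC50 values. Parasites were intraerythrocytic forms from asynchronous stock cultures, and compounds were tested by semiautomated microdilution.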

[2] = test system: Schistosoma mansoni 21-day-old schistosomules; test: effect on 21-day-old schistosomules in mice; type: in vivo; details: single 200 mg/kg per os, female mice
Description: All groups were killed 4 weeks after treatment and the liver and intestine were removed and separated. The liver and intestine were compressed and alive male and female worms could be seen and counted. The effect of the compounds was evaluated by mean total and female worm burden.

[3] = test system: P. falciparum K1 strain (Thailand resistant to chloroquine); test: semiautomated microdilution assay, [3H]-hypoxanthine incorporation, K1 strain; type: cell-based, Plasmodium falciparum; details: K1 strain, 72 h incubation
Outline: as §1

[4] = test system: Schistosoma mansoni adult schistosomes (49-day-old); test: effect on adult schistosomes (49-day-old) in mice; type: in vivo; details: for % reduction of adult worms growth at day 49 after per os application of 400 mg/kg, TWR (%) / adult worms at day 49, per os 400 mg/kg, DEAD WORM (%): single 400 mg/kg per os
Description: Mice were infected with 100 Schistosoma mansoni cercariae […]. Each group was treated per os with OZ compounds at single doses of 200, 400, and 600 mg/kg. […] All groups were killed 4 weeks after treatment and the liver and intestine were removed and separated. The liver and intestine were compressed and alive male and female worms could be seen and counted.

[5] = test system: ANKA strain of P. berghei; test: single dose STI in vivo screen in infected mice; set-up: species or system Plasmodium berghei; details: for Activity (%) 3 mg/kg SSV po / Survival (days) 3 mg/kg SSV po: single 3 mg/kg po in SSV; for Survival (days) 10 mg/kg SSV po / Activity (%) 10 mg/kg SSV po: single 10 mg/kg po in SSV
Outline: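 Groups of 3-5 Moro SPF or NMRI mice infected with the ANKA strain of P. berghei received a single dose of trioxolane on day one post-infection. The compound was given in 3% ethanol and 7% Tween 80 or in SSV (0.5% w/v CMC, 0.5% v/v benzyl alcohol, 0.4% v/v Tween 80, 0.9% w/v sodium chloride in water). Antimalarial activity was scored as percent reduction in parasitemia on day three and as survival time versus untreated controls. Survival to day 30 counted as cure.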

[6] = percent reduction in parasitemia day 3 post-infection

Structure (SMILES)	IC50 (ng/ml) NF54 [1] [ng/mL]	% reduction of schistosomule growth at day 21 after per os application of 200 mg/kg, FWR (%) [2] [%]	% reduction of schistosomule growth at day 21 after per os application of 200 mg/kg, TWR (%) [2] [%]	IC50 (ng/ml) K1 [3] [ng/mL]	% reduction of adult worms growth at day 49 after per os application of 200 mg/kg, TWR (%) ([4]; single 200 mg/kg per os)	adult worms at day 49, per os 200 mg/kg, DEAD WORM (%) ([4]; single 200 mg/kg per os)	Activity (%) po ([5]; percent reduction in parasitemia day 3 post-infection, single 10 mg/kg po in 3% ethanol and 7% Tween 80, mice) [%]	Activity (%) sc ([5]; percent reduction in parasitemia day 3 post-infection, single 10 mg/kg sc in 3% ethanol and 7% Tween 80, mice) [%]	Survival (days) po ([5]; single 10 mg/kg po in 3% ethanol and 7% Tween 80, untreated control 5.6 ± 0.3) [days]	Survival (days) sc ([5]; single 10 mg/kg sc in 3% ethanol and 7% Tween 80, untreated control 5.6 ± 0.3) [days]	% reduction of adult worms growth at day 49 after per os application of 400 mg/kg, TWR (%) [4]	adult worms at day 49, per os 400 mg/kg, DEAD WORM (%) [4]	Activity (%) 3 mg/kg SSV po [5, 6] [%]	Survival (days) 3 mg/kg SSV po [5] [days]	Survival (days) 10 mg/kg SSV po [5] [days]	Activity (%) 10 mg/kg SSV po [5, 6] [%]
C1CC2(CCN1)OOC1(O2)C2CC3CC(C2)CC1C3.Cl (centres unmarked) [OZ80]	0.34	75	79	0.15	0	3	59	84	6.3	7.7						
CC(C)(N)C(=O)NC[C@H]1CC[C@]2(CC1)OOC1(O2)C2CC3CC(C2)CC1C3 (some centres unmarked) [OZ281]	0.30 (≈ 0.000793 µM)	90	91	0.50 (≈ 0.00132 µM)							12%	15%	96	10.2	8.7	
O=C1CN(C[C@H]2CC[C@]3(CC2)OOC2(O3)C3CC4CC(C3)CC2C4)CCN1 (some centres unmarked) [OZ285]	1.8 (≈ 0.00478 µM)	85	86	1.3 (≈ 0.00345 µM)							17%	22%	72		8.7	
Oc1ccc([C@H]2CC[C@]3(CC2)OOC2(O3)C3CC4CC(C3)CC2C4)cc1 (some centres unmarked) [OZ288]	2.7 (≈ 0.00757 µM)	96	95	1.7 (≈ 0.00477 µM)							52%	45%	82		11.0	
O=C1CN(C(=O)C[C@H]2CC[C@]3(CC2)OO[C@]2(O3)C3CC4CC(C3)CC2C4)CCN1 [OZ296]	0.89 (≈ 0.0022 µM)	85	85	0.60 (≈ 0.00148 µM)							1%	13%	90		10.0	
O=C(O)CNC[C@H]1CC[C@]2(CC1)OO[C@]1(O2)C2CC3CC(C2)CC1C3 [OZ309]	17 (≈ 0.0484 µM)	100	97	11 (≈ 0.0313 µM)							19%	17%	86		8.8	
O=C(O)C1CCN(C(=O)C[C@H]2CC[C@]3(CC2)OO[C@]2(O3)C3CC4CC(C3)CC2C4)CC1 [OZ312]	27 (≈ 0.0623 µM)	93	94	19 (≈ 0.0438 µM)							16%	9%	13		7.2	43
O=C(O)CC[C@H]1CC[C@]2(CC1)OO[C@]1(O2)C2CC3CC(C2)CC1C3 [OZ352]	20 (≈ 0.0594 µM)	91	89	19 (≈ 0.0565 µM)							16%	26%	77	7.2	8.2	99.66
O=C(O)C(=O)NC[C@H]1CC[C@]2(CC1)OO[C@]1(O2)C2CC3CC(C2)CC1C3 [OZ360]	59 (≈ 0.161 µM)	13	17	58 (≈ 0.159 µM)							0/0%	0/0%	0	6.2	6.8	38
